# ChEMBL document CHEMBL4480432, “Expansion of a novel lead targeting M. tuberculosis DHFR as antitubercular agents” (Bioorg Med Chem, 2019)
# Experiments:
# [1] = system: DHFR (human versus Mycobacterium tuberculosis H37Rv); assay: Selectivity index, ratio of IC50 for human DHFR to IC50 for Mycobacterium tuberculosis H37Rv DHFR expressed in Escherichia coli BL21(DE3); type: toxicity; settings: human and Mycobacterium tuberculosis H37Rv; read-out: Ratio IC50
# [2] = Sub-acute toxicity in albino Wistar rat assessed as effect on behavioral changes at 1.25 to 10 mg/kg, po administered for 28 days; type: organism-based; settings: in vivo, 672 h
# [3] = Sub-acute toxicity in albino Wistar rat assessed as effect on food intake at 1.25 to 10 mg/kg, po administered for 28 days measured post last dose; type: organism-based; settings: in vivo, 672 h
# [4] = Sub-acute toxicity in albino Wistar rat assessed as salivation at 1.25 to 10 mg/kg, po administered for 28 days; type: organism-based; settings: in vivo, 672 h
# [5] = Sub-acute toxicity in albino Wistar rat assessed as effect on sleep at 1.25 to 10 mg/kg, po administered for 28 days; type: organism-based; settings: in vivo, 672 h
# [6] = Sub-acute toxicity in albino Wistar rat assessed as coma at 1.25 to 10 mg/kg, po administered for 28 days; type: organism-based; settings: in vivo, 672 h
# [7] = Sub-acute toxicity in albino Wistar rat assessed as change in autonomic nervous system at 1.25 to 10 mg/kg, po administered for 28 days; type: organism-based; settings: in vivo, 672 h
# [8] = Sub-acute toxicity in albino Wistar rat assessed as change in central nervous system at 1.25 to 10 mg/kg, po administered for 28 days; type: organism-based; settings: in vivo, 672 h
# [9] = Sub-acute toxicity in albino Wistar rat assessed as effect on skin at 1.25 to 10 mg/kg, po administered for 28 days; type: organism-based; settings: in vivo, 672 h
# [10] = Sub-acute toxicity in albino Wistar rat assessed as change in Urea level at 1.25 mg/kg, po administered for 28 days measured post last dose (reference value: 24.54 +/- 2.12 mg/dl); type: organism-based; settings: in vivo, 672 h
# [11] = Sub-acute toxicity in albino Wistar rat assessed as change in hemoglobin level at 1.25 mg/kg, po administered for 28 days measured post last dose (reference value: 12.14 +/- 1.45 g%); type: organism-based; settings: in vivo, 672 h
# [12] = Sub-acute toxicity in albino Wistar rat assessed as change in SOD level per mg protein at 1.25 mg/kg, po administered for 28 days measured post last dose (reference value: 4.85 +/- 0.34 U); type: organism-based; settings: in vivo, 672 h
# [13] = Sub-acute toxicity in albino Wistar rat assessed as change in CAT level per mg protein at 1.25 mg/kg, po administered for 28 days measured post last dose (reference value: 28.45 +/- 2.1 U); type: organism-based; settings: in vivo, 672 h
# [14] = Sub-acute toxicity in albino Wistar rat assessed as change in MDA level per mg protein at 1.25 mg/kg, po administered for 28 days measured post last dose (reference value: 0.91 +/- 0.1 nmol); type: organism-based; settings: in vivo, 672 h
# [15] = Sub-acute toxicity in albino Wistar rat assessed as change in ALT level at 2.5 mg/kg, po administered for 28 days measured post last dose (reference value: 12.19 +/- 1.78 U/L); type: organism-based; settings: in vivo, 672 h
# [16] = Sub-acute toxicity in albino Wistar rat assessed as change in SOD level per mg protein at 2.5 mg/kg, po administered for 28 days measured post last dose (reference value: 4.85 +/- 0.34 U); type: organism-based; settings: in vivo, 672 h
# [17] = Sub-acute toxicity in albino Wistar rat assessed as change in CAT level per mg protein at 2.5 mg/kg, po administered for 28 days measured post last dose (reference value: 28.45 +/- 2.1 U); type: organism-based; settings: in vivo, 672 h
# [18] = Sub-acute toxicity in albino Wistar rat assessed as change in MDA level per mg protein at 2.5 mg/kg, po administered for 28 days measured post last dose (reference value: 0.91 +/- 0.1 nmol); type: organism-based; settings: in vivo, 672 h
# [19] = Sub-acute toxicity in albino Wistar rat assessed as change in AST level at 5 mg/kg, po administered for 28 days measured post last dose (reference value: 25 +/- 1.76 U/L); type: organism-based; settings: in vivo, 672 h
# [20] = Sub-acute toxicity in albino Wistar rat assessed as change in SOD level per mg protein at 5 mg/kg, po administered for 28 days measured post last dose (reference value: 4.85 +/- 0.34 U); type: organism-based; settings: in vivo, 672 h
# [21] = Sub-acute toxicity in albino Wistar rat assessed as change in MDA level per mg protein at 5 mg/kg, po administered for 28 days measured post last dose (reference value: 0.91 +/- 0.1 nmol); type: organism-based; settings: in vivo, 672 h
# [22] = Sub-acute toxicity in albino Wistar rat assessed as change in ALT level at 10 mg/kg, po administered for 28 days measured post last dose (reference value: 12.19 +/- 1.78 U/L); type: organism-based; settings: in vivo, 672 h
# [23] = Sub-acute toxicity in albino Wistar rat assessed as change in Urea level at 10 mg/kg, po administered for 28 days measured post last dose (reference value: 24.54 +/- 2.12 mg/dl); type: organism-based; settings: in vivo, 672 h
# [24] = Sub-acute toxicity in albino Wistar rat assessed as change in serum protein level at 10 mg/kg, po administered for 28 days measured post last dose (reference value: […]); type: organism-based; settings: in vivo, 672 h
# [25] = Sub-acute toxicity in albino Wistar rat assessed as change in MDA level per mg protein at 10 mg/kg, po administered for 28 days measured post last dose (reference value: 0.91 +/- 0.1 nmol); type: organism-based; settings: in vivo, 672 h
# [26] = system: Mycobacterium tuberculosis; assay: microbe, parasite or virus in culture; settings: H37Rv ATCC 27294, 168 h
# Description: Antitubercular activity against Mycobacterium tuberculosis H37Rv ATCC 27294 after 7 days by microplate alamar blue method
structure (smiles),measurement,setting,value
CC(=O)c1c(C)n(Cc2ccccc2)c2ccc(OCc3cn(-c4ccc(Br)cc4)nn3)cc12,selectivity ratio,[1],18.4
same,Activity,[2],Non-Toxic
same,Activity,[3],Non-Toxic
same,Activity,[4],Non-Toxic
same,Activity,[5],Non-Toxic
same,Activity,[6],Non-Toxic
same,Activity,[7],Non-Toxic
same,Activity,[8],Non-Toxic
same,Activity,[9],Non-Toxic
same,Activity,[10],25.12 mg/dL
same,Activity,[11],12.12 g%
same,Activity,[12],4.95 U
same,Activity,[13],29.34 U
same,Activity,[14],0.95 nmol
same,Activity,[15],12.68 U/L
same,Activity,[16],5.01 U
same,Activity,[17],30.11 U
same,Activity,[18],1.05 nmol
same,Activity,[19],26.75 U/L
same,Activity,[20],5.21 U
same,Activity,[21],1.11 nmol
same,Activity,[22],15.23 U/L
same,Activity,[23],27.54 mg/dL
same,Activity,[24],7.76 mg/dL
same,Activity,[25],1.23 nmol
same,MIC,[26],3.03 µM
